We go through 19 molecules from US8492559B2, “Substituted indole compounds” (Gruenenthal GmbH, priority 2009, dated 2013).

In the test the target is T1, B1R receptor of the rat (rB1R) (Rattus norvegicus, UniProt P97583).
T1 construct: expressed in transfected cells; host or cells: CHO K1 cells
T1 sequence (P97583 1-337): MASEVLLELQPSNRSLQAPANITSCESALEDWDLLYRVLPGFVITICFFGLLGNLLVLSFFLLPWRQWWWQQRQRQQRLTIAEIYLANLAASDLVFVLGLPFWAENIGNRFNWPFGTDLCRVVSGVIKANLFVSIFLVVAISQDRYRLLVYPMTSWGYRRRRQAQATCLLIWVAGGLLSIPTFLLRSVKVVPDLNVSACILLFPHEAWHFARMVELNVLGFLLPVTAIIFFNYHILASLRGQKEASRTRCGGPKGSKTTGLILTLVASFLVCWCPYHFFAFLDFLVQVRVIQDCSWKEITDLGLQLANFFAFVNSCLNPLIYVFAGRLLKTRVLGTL
Put plainly: Functional investigation on the bradykinin 1 receptor (B1R), FLIPR Ca2+ assay, rB1R cells. Type of test: cell-based. The note with it: CHO-K1, 10 μM test substance; CHO K1 cells with rat B1R; agonist Des-Arg9 bradykinin; % of maximum achievable inhibition; read-out: B1R antagonism, rat [10 μM] % inhibition. The method, then: The indication in % activation is based on the Ca^2+ signal after addition of Lys-Des-[…] bradykinin (0.5 nM) or Des-[…] bradykinin (100 nM). Antagonists lead to a suppression of the Ca^2+ influx following administration of the agonist. The % inhibition in comparison with the maximum achievable inhibition is indicated. […] According to this assay, the Ca^2+ inflow through the channel is quantified with the aid of a Ca^2+-sensitive dye (Fluo-4 type, Molecular Probes Europe BV, Leiden, Netherlands) in a fluorescent imaging plate reader (FLIPR, Molecular Devices, Sunnyvale, USA). […] For functional investigations these cells are plated-out onto black 96-well plates with a clear base (BD Biosciences, Heidelberg, Germany or Greiner, Frickenhausen, Germany) in a density of 20,000-35,000 cells/well. Overnight the cells are incubated at 37° C. and 5% CO2 in culture medium (hB1R cells: Ham's Nutrient Mixture F12, Gibco Invitrogen GmbH, Karlsruhe, Germany or DMEM, Sigma-Aldrich, Taufkirchen, Germany; rB1R cells: D-MEM/F12, Gibco Invitrogen, Karlsruhe, Germany) with 10 vol. % FBS (foetal bovine serum, Gibco Invitrogen GmbH, Karlsruhe, Germany or PAN Biotech GmbH, Aidenbach, Germany). On the following day the cells are loaded with 2.13 μM Fluo-4 (Molecular Probes Europe BV, Leiden, Netherlands) in HBSS buffer (Hank's buffered saline solution, Gibco Invitrogen GmbH, Karlsruhe, Germany) with 2.5 mM probenecid (Sigma-Aldrich, Taufkirchen, Germany) and 10 mM HEPES (Sigma-Aldrich, Taufkirchen, Germany) for 60 min at 37° C. […] Sigma-Aldrich, Taufkirchen, Germany), 5.6 mM glucose and 0.05% gelatine (Merck KGaA, Darmstadt, Germany) is added. After a further incubation of 20 minutes at room temperature, the plates are inserted into the FLIPR for Ca^2+ measurement. Alternatively they are washed with buffer A (15 mM HEPES, 80 mM NaCl, 5 mM KCl, 1.2 mM CaCl2, 0.7 mM MgSO4, 2 g/l glucose, 2.5 mM probenecid) and loaded with buffer A with added 2.5 μM Fluo-4 and 0.025% Pluronic F127 (Sigma-Aldrich, Taufkirchen, Germany). The cells are then washed twice with buffer A and incubated for 30 minutes with buffer A, which additionally contains 0.05% BSA and 0.05% gelatine, at room temperature and then used for Ca^2+ measurement in the FLIPR. The Ca^2+-dependent fluorescence is measured here before and after addition of substances (λex=488 nm, λem=540 nm). The quantification is performed by measuring the highest fluorescence intensity (FC, fluorescence counts) over time. The FLIPR protocol comprises two additions of substance. […] Lys-Des-[…] bradykinin>=50 nM; rB1R: […] Antagonists lead to a suppression of the Ca^2+ inflow. The % inhibition in comparison with the maximum achievable inhibition is calculated. The substances are added in varying concentrations in order to determine the IC50 value. Double or triple determinations (n=2 or n=3) are performed and these are repeated in at least one further independent experiment (N>=2).
As usually defined, the inhibition is the relative decrease from the control value, in per cent. In the case of `COc1cc(C)c(S(=O)(=O)Nc2cccc3ccn(CC(=O)NCCC4CCN(c5ccncc5)CC4)c23)c(C)c1` [G_CC-21, 2-[7-[[(4-Methoxy-2,6-dimethyl-phenyl)sulfonyl]amino]-1H-indol-1-yl]-N-[2-(1-pyridin-4-yl-piperidin-4-yl)-ethyl]-acetamide], the inhibition at 10 µM turned out to be 97%. As for `COc1cc(C)c(S(=O)(=O)Nc2ccc3ccn(CCC(=O)NCCN4CCC(c5cccs5)(N(C)C)CC4)c3c2)c(C)c1` [G_CC-22, N-[2-(4-Dimethylamino-4-thiophen-2-yl-piperidin-1-yl)-ethyl]-3-[6-[[(4-methoxy-2,6-dimethyl-phenyl)sulfonyl]amino]-1H-indol-1-yl]-propionamide], the figure is 59%. For `COc1cc(C)c(S(=O)(=O)Nc2ccc3ccn(CCC(=O)NCCC4CCN(c5ccncc5)CC4)c3c2)c(C)c1` [G_CC-23, 3-[6-[[(4-Methoxy-2,6-dimethyl-phenyl)sulfonyl]amino]-1H-indol-1-yl]-N-[2-(1-pyridin-4-yl-piperidin-4-yl)-ethyl]-propionamide], the inhibition at 10 µM amounted to 63%. `Cc1cc(S(=O)(=O)Nc2ccc3ccn(CC(=O)NCCC4CCN(c5ccncc5)CC4)c3c2)c(C)cc1Cl` [G_CC-24, 2-[6-[[(4-Chloro-2,5-dimethyl-phenyl)sulfonyl]amino]-1H-indol-1-yl]-N-[2-(1-pyridin-4-yl-piperidin-4-yl)-ethyl]-acetamide]: the inhibition at 10 µM turned out to be 89%.

For the molecule `CN(CCCN1CCC(c2cccs2)(N(C)C)CC1)C(=O)Cn1ccc2cccc(NS(=O)(=O)c3cccc4ccccc34)c21` [G_CC-25, N-[3-(4-Dimethylamino-4-thiophen-2-yl-piperidin-1-yl)-propyl]-N-methyl-2-[7-[(naphthalen-1-ylsulfonyl)amino]-1H-indol-1-yl]-acetamide], the inhibition at 10 µM came out at 58%.

Turning to `Cc1cc(S(=O)(=O)Nc2cccc3ccn(CC(=O)N(C)CCCN4CCC(c5cccs5)(N(C)C)CC4)c23)c(C)cc1Cl` [G_CC-26, 2-[7-[[(4-Chloro-2,5-dimethyl-phenyl)sulfonyl]amino]-1H-indol-1-yl]-N-[3-(4-dimethylamino-4-thiophen-2-yl-piperidin-1-yl)-propyl]-N-methyl-acetamide], the inhibition at 10 µM amounted to 81%. As for `Cc1cc(S(=O)(=O)Nc2cccc3ccn(CC(=O)NCCN4CCC(c5cccs5)(N(C)C)CC4)c23)c(C)cc1Cl` [G_CC-27, 2-[7-[[(4-Chloro-2,5-dimethyl-phenyl)sulfonyl]amino]-1H-indol-1-yl]-N-[2-(4-dimethylamino-4-thiophen-2-yl-piperidin-1-yl)-ethyl]-acetamide], the figure is 56%. With `Cc1cc(S(=O)(=O)Nc2cccc3ccn(CC(=O)NCCC4CCN(c5ccncc5)CC4)c23)c(C)cc1Cl` [G_CC-28, 2-[7-[[(4-Chloro-2,5-dimethyl-phenyl)sulfonyl]amino]-1H-indol-1-yl]-N-[2-(1-pyridin-4-yl-piperidin-4-yl)-ethyl]-acetamide], the inhibition at 10 µM worked out at 82%.

Regarding `COc1cc(C)c(S(=O)(=O)Nc2ccc3ccn(CC(=O)N(C)CCCN4CCC(c5cccs5)(N(C)C)CC4)c3c2)c(C)c1` [G_CC-29, N-[3-(4-Dimethylamino-4-thiophen-2-yl-piperidin-1-yl)-propyl]-2-[6-[[(4-methoxy-2,6-dimethyl-phenyl)sulfonyl]amino]-1H-indol-1-yl]-N-methyl-acetamide], the inhibition at 10 µM was 92%. As for `COc1cc(C)c(S(=O)(=O)Nc2ccc3ccn(CC(=O)NCCN4CCC(c5cccs5)(N(C)C)CC4)c3c2)c(C)c1` [G_CC-30, N-[2-(4-Dimethylamino-4-thiophen-2-yl-piperidin-1-yl)-ethyl]-2-[6-[[(4-methoxy-2,6-dimethyl-phenyl)sulfonyl]amino]-1H-indol-1-yl]-acetamide], the figure is 53%. In the case of `COc1cc(C)c(S(=O)(=O)Nc2cccc3ccn(CC(=O)N4CCC5(CC4)C(=O)N(C)CC5c4ccc(F)cc4)c23)c(C)c1` (stereo not shown) [G_CC-31, N-[1-[2-[1-(4-Fluorophenyl)-3-methyl-4-oxo-3,8-diazaspiro[4.5]decan-8-yl]-2-oxo-ethyl]-1H-indol-7-yl]-4-methoxy-2,6-dimethyl-benzenesulfonic acid amide], the inhibition at 10 µM is 91%. With `COc1cc(C)c(S(=O)(=O)Nc2ccc3ccn(CC(=O)N4CC5CC4CN5Cc4ccc(F)cc4)c3c2)c(C)c1` (stereo not shown) [G_CC-33, N-[1-[2-[2-[(4-Fluorophenyl)-methyl]-2,5-diazabicyclo[2.2.1]heptan-5-yl]-2-oxo-ethyl]-1H-indol-6-yl]-4-methoxy-2,6-dimethyl-benzenesulfonic acid amide], the inhibition at 10 µM came to 71%. With `COc1cc(C)c(S(=O)(=O)Nc2cccc3ccn(CC(=O)N4CC5CC4CN5Cc4ccncc4)c23)c(C)c1` (stereo not shown) [G_CC-34, 4-Methoxy-2,6-dimethyl-N-[1-[2-oxo-2-[2-(pyridin-4-yl-methyl)-2,5-diazabicyclo[2.2.1]heptan-5-yl]-ethyl]-1H-indol-7-yl]-benzenesulfonic acid amide] the figure was 58%; with `COc1cc(C)c(S(=O)(=O)Nc2ccc3ccn(CCC(=O)N4CCC5(CC4)CCN(c4ccncc4)CC5)c3c2)c(C)c1` [G_CC-35, 4-Methoxy-2,6-dimethyl-N-[1-[3-oxo-3-(3-pyridin-4-yl-3,9-diazaspiro[5.5]undecan-9-yl)-propyl]-1H-indol-6-yl]-benzenesulfonic acid amide], 72%; with `Cc1cc(S(=O)(=O)Nc2ccc3ccn(CC(=O)N4CCC5(CC4)CCN(c4ccncc4)CC5)c3c2)c(C)cc1Cl` [G_CC-36, 4-Chloro-2,5-dimethyl-N-[1-[2-oxo-2-(3-pyridin-4-yl-3,9-diazaspiro[5.5]undecan-9-yl)-ethyl]-1H-indol-6-yl]-benzenesulfonic acid amide], 63%. Regarding `O=C(Cn1ccc2ccc(NS(=O)(=O)c3ccccc3C(F)(F)F)cc21)N1CCC2(CC1)CCN(c1ccncc1)CC2` [G_CC-37, N-[1-[2-Oxo-2-(3-pyridin-4-yl-3,9-diazaspiro[5.5]undecan-9-yl)-ethyl]-1H-indol-6-yl]-2-(trifluoromethyl)-benzenesulfonic acid amide], the inhibition at 10 µM is 91%. On to `O=C(Cn1ccc2cccc(NS(=O)(=O)c3cccc4ccccc34)c21)N1CCC2(CC1)CCN(c1ccncc1)CC2` [G_CC-38, N-[1-[2-Oxo-2-(3-pyridin-4-yl-3,9-diazaspiro[5.5]undecan-9-yl)-ethyl]-1H-indol-7-yl]-naphthalene-1-sulfonic acid amide], for which the inhibition at 10 µM came to 96%. As for `Cc1cc(S(=O)(=O)Nc2cccc3ccn(CC(=O)N4CCC5(CC4)CCN(c4ccncc4)CC5)c23)c(C)cc1Cl` [G_CC-39, 4-Chloro-2,5-dimethyl-N-[1-[2-oxo-2-(3-pyridin-4-yl-3,9-diazaspiro[5.5]undecan-9-yl)-ethyl]-1H-indol-7-yl]-benzenesulfonic acid amide], the inhibition at 10 µM is 95%. Consider `COc1cc(C)c(S(=O)(=O)Nc2cccc3ccn(CCC(=O)N4CCN(C5CCN(C)CC5)CC4)c23)c(C)c1` [G_CC-40, 4-Methoxy-2,6-dimethyl-N-[1-[3-[4-(1-methyl-piperidin-4-yl)-piperazin-1-yl]-3-oxo-propyl]-1H-indol-7-yl]-benzenesulfonic acid amide], for which the inhibition at 10 µM was found to be 86%.
